Experimental data from US20260207615A1, “FLUOROPYRIDOPYRIMIDINE AND FLUOROQUINAZOLINE DERIVATIES AND METHODS OF USE THEREOF” (Frontier Medicines Corporation, priority 2022, published 2026).

Molecular target: T1, KRAS G12C and cRAF interaction (Homo sapiens, UniProt P01116, C118S/C51S/C80L/G12C)
T1 construct: truncated version comprising amino acids 1-169
Assay: Inhibition of KRAS G12C and cRAF binding (AlphaScreen)
Format: biochemical
Settings: KRAS G12C (Cys-light, aa 1-169) preloaded with GMPPNP, cRaf RBD (aa 50-131), 2 hours incubation
Outline: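 Biotin-AviTag KRAS G12C (Cys-light C51S/C80L/C118S, aa 1-169, GMPPNP-loaded; 0.5 nM final)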

T1 sequence (P01116 1-169 isoform P01116-2 G12C/C51S/C80L/C118S): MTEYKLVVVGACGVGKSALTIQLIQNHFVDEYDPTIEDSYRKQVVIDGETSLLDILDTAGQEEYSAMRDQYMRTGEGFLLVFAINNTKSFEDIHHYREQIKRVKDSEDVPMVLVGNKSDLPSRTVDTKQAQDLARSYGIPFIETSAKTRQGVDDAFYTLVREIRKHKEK

Structure (SMILES) | IC50 [nM]
CN1CC[C@@H]1/C=C/C(=O)N1CCN(c2nc(OC[C@@]34CCCN3C[C@H](F)C4)nc3c(F)c(-c4cccc5ccc(F)c(F)c45)ncc23)CC12COC2 [Example 67] | 10 to 100
C=CC(=O)N1CCN(c2nc(OC[C@@]34CCCN3C[C@H](F)C4)nc3c(F)c(-c4cccc5cccc(Cl)c45)ncc23)CC12COC2 [Example 17, 1-(8-(7-(8-chloronaphthalen-1-yl)-8-fluoro-2-(((2R,7aS)-2-fluorotetrahydro-1H-pyrrolizin-7a(5H)-yl)methoxy)pyrido[4,3-d]pyrimidin-4-yl)-2-oxa-5,8-diazaspiro[3.5]nonan-5-yl) prop-2-en-1-one] | 10 to 100
O=C(/C=C/CN1[C@@H]2CC[C@H]1COC2)N1CCN(c2nc(OC[C@@]34CCCN3C[C@H](F)C4)nc3c(F)c(-c4cc(O)cc(Cl)c4C4CC4)ncc23)CC12COC2 [Example 29, (E)-4-((1R,5S)-3-oxa-8-azabicyclo[3.2.1]octan-8-yl)-1-(8-(7-(3-chloro-2-cyclopropyl-5-hydroxyphenyl)-8-fluoro-2-(((2R,7aS)-2-fluorotetrahydro-1H-pyrrolizin-7a(5H)-yl)methoxy)pyrido[4,3-d]pyrimidin-4-yl)-2-oxa-5,8-diazaspiro[3.5]nonan-5-yl) but-2-en-1-one] | < 10
O=C(C#CCN1CC2CCC(C1)O2)N1CCN(c2nc(OC[C@@]34CCCN3C[C@H](F)C4)nc3c(F)c(-c4cccc5cccc(Cl)c45)ncc23)CC12COC2 [Example 47, 4-(8-oxa-3-azabicyclo[3.2.1]octan-3-yl)-1-(8-(7-(8-chloronaphthalen-1-yl)-8-fluoro-2-(((2R,7aS)-2-fluorotetrahydro-1H-pyrrolizin-7a(5H)-yl)methoxy)pyrido[4,3-d]pyrimidin-4-yl)-2-oxa-5,8-diazaspiro[3.5]nonan-5-yl) but-2-yn-1-one] | 100 to 500
C=CC(=O)N1CCN(c2nc(OC[C@@]34CCCN3C[C@H](F)C4)nc3c(F)c(-c4cccc5ccc(F)c(F)c45)ncc23)CC12COC2 [Example 35, 1-(8-(7-(7,8-difluoronaphthalen-1-yl)-8-fluoro-2-(((2R,7aS)-2-fluorotetrahydro-1H-pyrrolizin-7a(5H)-yl)methoxy)pyrido[4,3-d]pyrimidin-4-yl)-2-oxa-5,8-diazaspiro[3.5]nonan-5-yl) prop-2-en-1-one] | < 10
C=CC(=O)N1CCN(c2nc(OC[C@@]34CCCN3C[C@H](F)C4)nc3c(F)c(-c4cccc5ccc(F)c(F)c45)ncc23)C[C@]12CCOC2 [Example 81] | ≥ 500
O=C(/C=C/CN1[C@@H]2CC[C@H]1COC2)N1CCN(c2nc(OC[C@@]34CCCN3C[C@H](F)C4)nc3c(F)c(-c4cccc(Cl)c4C(F)(F)F)ncc23)CC12COC2 [Example 56, (E)-4-((1R,5S)-3-oxa-8-azabicyclo[3.2.1]octan-8-yl)-1-(8-(7-(3-chloro-2-(trifluoromethyl)phenyl)-8-fluoro-2-(((2R,7aS)-2-fluorotetrahydro-1H-pyrrolizin-7a(5H)-yl)methoxy)pyrido[4,3-d]pyrimidin-4-yl)-2-oxa-5,8-diazaspiro[3.5]nonan-5-yl) but-2-en-1-one] | < 10
C#Cc1c(F)ccc2cccc(-c3ncc4c(N5CCN(C(=O)/C=C/CN6CC[C@@H](F)C6)C6(COC6)C5)nc(OC[C@@]56CCCN5C[C@H](F)C6)nc4c3F)c12 [Example 44, (E)-1-(8-(7-(8-ethynyl-7-fluoronaphthalen-1-yl)-8-fluoro-2-(((2R,7aS)-2-fluorotetrahydro-1H-pyrrolizin-7a(5H)-yl)methoxy)pyrido[4,3-d]pyrimidin-4-yl)-2-oxa-5,8-diazaspiro[3.5]nonan-5-yl)-4-((R)-3-fluoropyrrolidin-1-yl) but-2-en-1-one] | < 10
CN(C)C/C=C/C(=O)N1CCN(c2nc(OC[C@@]34CCCN3C[C@H](F)C4)nc3c(F)c(-c4cccc(Cl)c4C(F)(F)F)ncc23)CC12COC2 [Example 71] | 100 to 500
Cc1nccc(/C=C/C(=O)N2CCN(c3nc(OCC45CCCN4CCC5)nc4c(F)c(-c5cccc6cccc(Cl)c56)ncc34)CC23COC3)n1 [Example 7, (E)-1-(8-(7-(8-chloronaphthalen-1-yl)-8-fluoro-2-((tetrahydro-1H-pyrrolizin-7a(5H)-yl)methoxy)pyrido[4,3-d]pyrimidin-4-yl)-2-oxa-5,8-diazaspiro[3.5]nonan-5-yl)-3-(2-methylpyrimidin-4-yl) prop-2-en-1-one] | 100 to 500
Cc1nccc(/C=C/C(=O)N2CCN(c3nc(OCC45CCCN4CCC5)nc4c(F)c(-c5cccc6ccc(F)c(F)c56)ncc34)CC23COC3)n1 [Example 10, (E)-1-(8-(7-(7,8-difluoronaphthalen-1-yl)-8-fluoro-2-((tetrahydro-1H-pyrrolizin-7a(5H)-yl)methoxy)pyrido[4,3-d]pyrimidin-4-yl)-2-oxa-5,8-diazaspiro[3.5]nonan-5-yl)-3-(2-methylpyrimidin-4-yl) prop-2-en-1-one] | 100 to 500
C=CC(=O)N1CCN(c2nc(OC[C@@]34CCCN3C[C@H](F)C4)nc3c(F)c(-c4cccc5cccc(Cl)c45)ncc23)C[C@@]12CCOC2 [Example 88] | 100 to 500
Cc1nccc(/C=C/C(=O)N2CCN(c3nc(OC[C@@]45CCCN4C[C@H](F)C5)nc4c(F)c(-c5cccc6ccc(F)c(Cl)c56)ncc34)CC23COC3)n1 [Example 6, (E)-1-(8-(7-(8-chloro-7-fluoronaphthalen-1-yl)-8-fluoro-2-(((2R,7aS)-2-fluorotetrahydro-1H-pyrrolizin-7a(5H)-yl)methoxy)pyrido[4,3-d]pyrimidin-4-yl)-2-oxa-5,8-diazaspiro[3.5]nonan-5-yl)-3-(2-methylpyrimidin-4-yl) prop-2-en-1-one] | 10 to 100
C=CC(=O)N1CCN(c2nc(OC[C@@]34CCCN3C[C@H](F)C4)nc3c(F)c(-c4n[nH]c5cccc(Cl)c45)ncc23)CC12COC2 [Example 75] | ≥ 500
C=CC(=O)N1[C@@H](C)CN(c2nc(OC[C@@]34CCCN3C[C@H](F)C4)nc3c(F)c(-c4cccc5ccc(F)c(F)c45)ncc23)CC12COC2 [Example 70] | ≥ 500
C#Cc1c(F)ccc2cccc(-c3ncc4c(N5CCN(C(=O)/C(F)=C/c6cc(C)nc(C)n6)C6(COC6)C5)nc(OC[C@@]56CCCN5C[C@H](F)C6)nc4c3F)c12 [Example 63, (Z)-3-(2,6-dimethylpyrimidin-4-yl)-1-(8-(7-(8-ethynyl-7-fluoronaphthalen-1-yl)-8-fluoro-2-(((2R,7aS)-2-fluorotetrahydro-1H-pyrrolizin-7a(5H)-yl)methoxy)pyrido[4,3-d]pyrimidin-4-yl)-2-oxa-5,8-diazaspiro[3.5]nonan-5-yl)-2-fluoroprop-2-en-1-one] | < 10
C=CC(=O)N1CCN(c2nc(OC[C@@]34CCCN3C[C@H](F)C4)nc3c(F)c(-c4cccc5cccc(Cl)c45)ncc23)CC12CCOC2 (stereo partly shown) [Example 84] | 100 to 500
C=CC(=O)N1CCN(c2nc(OC[C@@]34CCCN3C[C@H](F)C4)nc3c(F)c(-c4ccc(F)c5sc(N)nc45)c(C(F)(F)F)cc23)C[C@@]12CCOC2 [Example 93] | ≥ 500
O=C(/C=C/CN1CCOCC1)N1CCN(c2nc(OC[C@@]34CCCN3C[C@H](F)C4)nc3c(F)c(-c4cccc5cccc(Cl)c45)ncc23)CC12COC2 [Example 12, (E)-1-(8-(7-(8-chloronaphthalen-1-yl)-8-fluoro-2-(((2R,7aS)-2-fluorotetrahydro-1H-pyrrolizin-7a(5H)-yl)methoxy)pyrido[4,3-d]pyrimidin-4-yl)-2-oxa-5,8-diazaspiro[3.5]nonan-5-yl)-4-morpholinobut-2-en-1-one] | ≥ 500
C#Cc1c(F)ccc2cccc(-c3ncc4c(N5CCN(C(=O)C=C)C6(COC6)C5)nc(OC[C@@]56CCCN5C[C@H](F)C6)nc4c3F)c12 [Example 50, 1-(8-(7-(8-ethynyl-7-fluoronaphthalen-1-yl)-8-fluoro-2-(((2R,7aS)-2-fluorotetrahydro-1H-pyrrolizin-7a(5H)-yl)methoxy)pyrido[4,3-d]pyrimidin-4-yl)-2-oxa-5,8-diazaspiro[3.5]nonan-5-yl) prop-2-en-1-one] | < 10
O=C(/C=C/CN1CC2CCC(C1)O2)N1CCN(c2nc(OC[C@@]34CCCN3C[C@H](F)C4)nc3c(F)c(-c4cccc5cccc(Cl)c45)ncc23)CC12COC2 [Example 15, (E)-4-(8-oxa-3-azabicyclo[3.2.1]octan-3-yl)-1-(8-(7-(8-chloronaphthalen-1-yl)-8-fluoro-2-(((2R,7aS)-2-fluorotetrahydro-1H-pyrrolizin-7a(5H)-yl)methoxy)pyrido[4,3-d]pyrimidin-4-yl)-2-oxa-5,8-diazaspiro[3.5]nonan-5-yl) but-2-en-1-one] | 10 to 100
O=C(/C=C/CN1[C@@H]2CC[C@H]1COC2)N1CCN(c2nc(OC[C@@]34CCCN3C[C@H](F)C4)nc3c(F)c(-c4cccc5ccc(F)c(Cl)c45)ncc23)CC12COC2 [Example 23, (E)-4-((1R,5S)-3-oxa-8-azabicyclo[3.2.1]octan-8-yl)-1-(8-(7-(8-chloro-7-fluoronaphthalen-1-yl)-8-fluoro-2-(((2R,7aS)-2-fluorotetrahydro-1H-pyrrolizin-7a(5H)-yl)methoxy)pyrido[4,3-d]pyrimidin-4-yl)-2-oxa-5,8-diazaspiro[3.5]nonan-5-yl) but-2-en-1-one] | < 10
C=CC(=O)N1CCN(c2nc(OC[C@@]34CCCN3C[C@H](F)C4)nc3c(F)c(-c4ccc(F)c5sc(N)nc45)c(Cl)cc23)C[C@@]12CCOC2 [Example 91] | 100 to 500
Cc1nccc(/C=C/C(=O)N2CCN(c3nc(OCC45CCCN4CCC5)nc4c(F)c(-c5cccc6ccc(F)c(Cl)c56)ncc34)CC23COC3)n1 [Example 11, (E)-1-(8-(7-(8-chloro-7-fluoronaphthalen-1-yl)-8-fluoro-2-((tetrahydro-1H-pyrrolizin-7a(5H)-yl)methoxy)pyrido[4,3-d]pyrimidin-4-yl)-2-oxa-5,8-diazaspiro[3.5]nonan-5-yl)-3-(2-methylpyrimidin-4-yl) prop-2-en-1-one] | 100 to 500
O=C(/C=C/CN1CC2CC(C1)O2)N1CCN(c2nc(OC[C@@]34CCCN3C[C@H](F)C4)nc3c(F)c(-c4cccc(Cl)c4C(F)(F)F)ncc23)CC12COC2 [Example 77] | 10 to 100
